Source: patent publication EP4458830A1, “TRICYCLIC COMPOUND, METHOD FOR PREPARING SAME, AND USE THEREOF” (Sichuan Kelun-Biotech Biopharmaceutical Co., Ltd., priority 2021, dated 2023)

Target: T1, human TLR7 (Homo sapiens, UniProt Q9NYK1)
T1 construct: host or cells: HEK-Blue hTLR7 cells (HEK293-derived reporter line; that the line is stably transfected with the human TLR7 gene is own knowledge of the vendor's product)
T1 sequence (Q9NYK1 27-1049): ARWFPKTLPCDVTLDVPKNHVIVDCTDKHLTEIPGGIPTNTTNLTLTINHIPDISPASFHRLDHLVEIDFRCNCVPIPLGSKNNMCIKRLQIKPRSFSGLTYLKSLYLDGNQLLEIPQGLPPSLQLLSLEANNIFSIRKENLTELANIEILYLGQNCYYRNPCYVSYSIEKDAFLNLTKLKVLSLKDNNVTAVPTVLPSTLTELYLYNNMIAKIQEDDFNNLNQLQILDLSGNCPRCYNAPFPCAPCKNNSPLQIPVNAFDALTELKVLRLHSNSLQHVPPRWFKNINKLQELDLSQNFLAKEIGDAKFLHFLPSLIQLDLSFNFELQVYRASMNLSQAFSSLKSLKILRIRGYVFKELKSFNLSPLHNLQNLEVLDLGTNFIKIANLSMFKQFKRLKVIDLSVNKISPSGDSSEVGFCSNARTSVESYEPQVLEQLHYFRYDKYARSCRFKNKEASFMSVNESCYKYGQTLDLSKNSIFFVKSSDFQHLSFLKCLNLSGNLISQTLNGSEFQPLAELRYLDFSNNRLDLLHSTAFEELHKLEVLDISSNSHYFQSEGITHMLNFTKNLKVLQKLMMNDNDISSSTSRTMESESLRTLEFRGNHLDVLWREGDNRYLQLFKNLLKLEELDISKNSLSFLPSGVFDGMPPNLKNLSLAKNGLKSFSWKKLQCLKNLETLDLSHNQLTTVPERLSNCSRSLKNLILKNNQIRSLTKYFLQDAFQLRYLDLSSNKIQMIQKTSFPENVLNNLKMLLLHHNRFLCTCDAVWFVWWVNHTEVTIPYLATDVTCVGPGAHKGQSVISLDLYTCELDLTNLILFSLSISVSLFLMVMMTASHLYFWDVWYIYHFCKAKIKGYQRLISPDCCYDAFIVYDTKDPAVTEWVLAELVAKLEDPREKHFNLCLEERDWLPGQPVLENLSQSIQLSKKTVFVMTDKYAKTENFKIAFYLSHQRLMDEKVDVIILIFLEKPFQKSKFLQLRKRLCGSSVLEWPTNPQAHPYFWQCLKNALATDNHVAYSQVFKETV
Test: Agonistic activity of compounds on HEK-Blue hTLR7 cells (QUANTI-Blue reporter, OD620)
Type: cell-based
Conditions: for EC50 / Emax: HEK-Blue hTLR7 cells; for EC50: 20 h incubation; for Emax: OD620 at which the activation effect reached the maximum; for activation effect on human TLR7: summary in words
Protocol: • 1. HEK-Blue hTLR7 cells (Invivogen) were cultured in DMEM medium (Hyclone) containing 10% FBS heat-inactivated fetal bovine serum (Corning). On the day of detection, the cell state was observed under a microscope, the cells were collected and resuspended, and the cell concentration was adjusted after counting, 50 µL per well, the total amount of cells was 2×10^4, and the cells were inoculated in a 96-well plate. • 2. After the cells adhered to the wall overnight, 50 µL of the test compound at different concentrations was added into the well plate, so that the final concentrations were 100 µM, 33.3 µM, 11.11 µM, 3.70 µM, 1.23 µM, 0.41 µM, 0.14 µM, 0.05 µM, 0 µM, and the final concentration of DMSO was 1%. The compound was incubated with the cells in a 37°C, 5% CO2 incubator for 20 h. • 3. After the incubation, observation under microscope was performed to determine the maximum signal well, the states of the cells with the highest and lowest concentrations of the compound, and whether the compound will crystalize at high concentration. 10 µL of cell culture supernatant was taken and transferred to a new 96-well transparent plate, 90 µL of QUANTI-Blue (Invivogen) detection reagent was added to each well, and incubated at 37°C for 3 h, and OD620 was read with a multifunctional microplate reader (BMG LABTECH). • 4. EC50 was calculated by fitting with Graphpad Prism software log(agonist) vs. response - Variable slope, and Emax was the OD620 at which the activation effect of the test compound reached the maximum.

Row | Compound | EC50 [nM] | Emax [OD620] | activation effect on human TLR7
1 | COCCc1nc2c(N)nc3ccsc3c2n1CCCCN [Compound 4, 1-(4-aminobutyl)-2-(2-methoxyethyl)-1H-imidazo[4,5-d]thieno[3,2-b]pyridine-4-amine] | 2410 | 1.74 | strong activation effect
2 | CCOCc1nc2c(N)nc3ccsc3c2n1CCCCN [Compound 5, 1-(4-aminobutyl)-2-(2-ethoxymethyl)-1H-imidazo[4,5-d] thieno[3,2-b]pyridine-4-amine] | 3250 | 1.46 | strong activation effect
3 | CCCCc1nc2c(N)nc3cc(C4=CCN(C)CC4)sc3c2[nH]1 [Compound 8, 2-butyl-7-(1-methyl-1,2,3,6-tetrahydropyridin-4-yl)-1H-imidazo [4,5-d]thieno[3,2-b]pyridine-4-amine] | 2500 | 0.56 | strong activation effect
4 | CCCCc1nc2c(N)nc3cc(C)sc3c2n1CC1CCN(CCOCCOCCN)CC1 [Compound 15, 1-((1-(2-(2-(2-aminoethoxy)ethoxy)ethyl)piperidin-4-yl)methyl)-2-butyl-7-methyl-1H-imidazo[4,5-d]thieno[3,2-b]pyridine-4-amine] | 1420 | 2.40 | strong activation effect
5 | CCCCc1nc2c(N)nc3cc(C)sc3c2n1CC1CCN(CCOCCOCCOCCOCCOCCOCCOC)CC1 [Compound 16, 1-((1-(2,5,8,11,14,17,20-heptaoxadocosan-22-yl)piperidin-4-yl)methyl)-2-butyl-7-methyl-1H-imidazo[4,5-d]thieno[3,2-b]pyridine-4-amine] | 1690 | 2.18 | strong activation effect
6 | CCCCc1nc2c(N)nc3cc(C)sc3c2n1CC1CCN(C(=O)CCOCCOCCN)CC1 [Compound 17, 1-(4-((4-amino-2-butyl-7-methyl-1H-imidazo[4,5-d]thieno[3,2-b]pyridin-1-yl)methyl)piperidin-1-yl)-3-(2-(2-aminoethoxy)ethoxy)propan-1-one] | 1160 | 2.23 | strong activation effect
7 | CCCCc1nc2c(N)nc3ccsc3c2n1CC1CCNCC1 [Compound 25, 2-butyl-1-(piperidin-4-ylmethyl)-1H-imidazo[4,5-d]thieno[3,2-b] pyridine-4-amine] | 140 | 2.08 | strong activation effect
8 | CCCCc1nc2c(N)nc3cc(C)sc3c2n1CC1CCOCC1 [Compound 26, 2-butyl-7-methyl-1-((tetrahydro-2H-pyran-4-yl)methyl)-1H-imidazo[4,5-d]thieno[3,2-b]pyridine-4-amine] | 50 | 1.78 | strong activation effect
9 | CCCCc1nc2c(N)nc3cc(C)sc3c2n1CC1CCN(C)CC1 [Compound 28, 2-butyl-7-methyl-1-((1-methylpiperidin-4-yl)methyl)-1H-imidazo[4,5-d]thieno[3,2-b]pyridine-4-amine] | 200 | 1.39 | strong activation effect
10 | CCCCc1nc2c(N)nc3cc(C4CCN(C)CC4)sc3c2n1C [Compound 32, 2-butyl-1-methyl-7-(1-methylpiperidin-4-yl)-1H-imidazo[4,5-d] thieno[3,2-b]pyridine-4-amine] | 1260 | 0.91 | strong activation effect
11 | CCCCc1nc2c(N)nc3cc(C4CCN(C)CC4)sc3c2n1CC1CCOCC1 [Compound 34, 2-butyl-7-(1-methylpiperidin-4-yl)-1-((tetrahydro-2H-pyran-4-yl)methyl)-1H-imidazo[4,5-d]thieno[3,2-b]pyridine-4-amine] | 83 | 1.21 | strong activation effect
12 | CCCCc1nc2c(N)nc3cc(C4CCN(C)CC4)sc3c2n1CC1CCN(C)CC1 [Compound 38, 2-butyl-7-(1-methylpiperidin-4-yl)-1-((1-methylpiperidin-4-yl)methyl)-1H-imidazo[4,5-d]thieno[3,2-b]pyridine-4-amine] | 1300 | 0.49 | strong activation effect
13 | CCCCc1nc2c(N)nc3cc(C4CCOCC4)sc3c2n1CC1CCN(C)CC1 [Compound 40, 2-butyl-1-((1-methylpiperidin-4-yl)methyl)-7-(tetrahydro-2H-pyran-4-yl)-1H-imidazo[4,5-d]thieno[3,2-b]pyridine-4-amine] | 580 | 1.83 | strong activation effect
14 | CCCCc1nc2c(N)nc3cc(C4CCNCC4)sc3c2n1CC1CCN(CCOC)CC1 [Compound 41, 2-butyl-7-(hexahydropyridin-4-yl)-1-{[1-(2-methoxyethyl)hexahydropyridin-4-yl]methyl}thieno[3,2-b]imidazo[4,5-d]pyridine-4-amine] | 5050 | 0.84 | strong activation effect
15 | CCCCc1nc2c(N)nc3cc(C4CCN(C)CC4)sc3c2n1CC1CCN(CCOC)CC1 [Compound 42, 2-butyl-1-{[1-(2-methoxyethyl)hexahydropyridin-4-yl]methyl}-7-(1-methylhexahydropyridin-4-yl)thieno[3,2-b]imidazo[4,5-d]pyridine-4-amine] | 1430 | 0.65 | strong activation effect
16 | COCCc1nc2c(N)nc3ccsc3c2n1CC1CCNCC1 [Compound 55, 1-(hexahydropyridin-4-ylmethyl)-2-(2-methoxyethyl) thieno[3,2-b]imidazo[4,5-d]pyridine-4-amine] | 1480 | 1.44 | strong activation effect
17 | COCCc1nc2c(N)nc3ccsc3c2n1CC1CCN(C)CC1 [Compound 56, 2-(2-methoxyethyl)-1-[(1-methylhexahydropyridin-4-yl)methyl] thieno[3,2-b]imidazo[4,5-d]pyridine-4-amine] | 460 | 1.41 | strong activation effect
18 | CCCCc1nc2c(N)nc3cc(C4CCN(C(C)=O)CC4)sc3c2n1CC1CCOCC1 [Compound 59, 1-{4-[4-amino-2-butyl-1-(3,4,5,6-tetrahydro-2H-pyran-4-ylmethyl)thieno[3,2-b]imidazo[4,5-d]pyridin-7-yl]hexahydropyridin-1-yl}ethyl-1-one] | 40 | 1.45 | strong activation effect
